Measurements: US20200216417A1, “INHIBITORS OF FIBROBLAST ACTIVATION PROTEIN” (Praxis Biotech LLC, priority 2019, published 2020)
Where two headings read alike, the source gives them in different places.

How the values were obtained:
[1] = molecular target: T1, recombinant human DPP9 (rhDPP9) (Homo sapiens, UniProt Q86TI2); test: DPP9 enzymatic activity assay, 40 ng rhDPP9, HEPES buffer; format: biochemical; conditions: Table 3A
T1 construct: purchased R&S system / R&D systems (both sic) 5419-SE

[2] = molecular target: T2, recombinant human PREP (rhPREP) (Homo sapiens, UniProt P48147); test: PREP enzymatic activity assay, Z-Gly-Pro-AMC; format: biochemical
T2 sequence (P48147 1-710): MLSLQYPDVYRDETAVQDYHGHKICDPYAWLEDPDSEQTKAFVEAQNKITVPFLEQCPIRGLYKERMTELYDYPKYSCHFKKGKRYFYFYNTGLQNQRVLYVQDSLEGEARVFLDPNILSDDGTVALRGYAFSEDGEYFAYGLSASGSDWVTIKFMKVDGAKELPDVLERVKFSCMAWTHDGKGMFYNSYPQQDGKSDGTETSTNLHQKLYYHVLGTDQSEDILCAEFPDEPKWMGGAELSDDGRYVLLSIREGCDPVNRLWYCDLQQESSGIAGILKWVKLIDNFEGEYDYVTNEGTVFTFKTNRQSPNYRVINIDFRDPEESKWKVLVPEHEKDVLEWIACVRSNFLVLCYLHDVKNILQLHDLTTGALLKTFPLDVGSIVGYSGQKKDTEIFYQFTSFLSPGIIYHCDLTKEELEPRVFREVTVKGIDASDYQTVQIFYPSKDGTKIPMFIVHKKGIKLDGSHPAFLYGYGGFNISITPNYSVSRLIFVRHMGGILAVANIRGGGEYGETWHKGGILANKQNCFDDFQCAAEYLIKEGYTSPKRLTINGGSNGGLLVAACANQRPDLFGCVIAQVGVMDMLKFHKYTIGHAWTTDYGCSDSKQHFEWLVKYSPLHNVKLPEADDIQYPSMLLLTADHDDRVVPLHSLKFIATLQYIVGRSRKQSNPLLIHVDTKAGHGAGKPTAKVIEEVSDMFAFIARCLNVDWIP

[3] = molecular target: T1, recombinant human DPP9 (rhDPP9); test: DPP9 inhibition assay, 10 ng rhDPP9, Tris-HCl/BSA buffer; format: biochemical; conditions: Table 3B
[4] = molecular target: T3, recombinant human DPPIV (rhDPPIV) (Homo sapiens, UniProt P27487); test: DPPIV enzymatic activity assay, H-Gly-Pro-pNA; format: biochemical
T3 construct: purchased R&S system (so in the source)

[5] = molecular target: T4, recombinant human FAPα (rhFAPα) (Homo sapiens, UniProt Q12884); test: FAPα enzymatic exopeptidase (dipeptidase) activity assay, Z-Gly-Pro-AMC; format: biochemical; conditions: for inhibition at 1 µM: exopeptidase inhibition at 1 μM test compound
T4 construct: purchased R&S system (so in the source)
T4 sequence (Q12884 1-760): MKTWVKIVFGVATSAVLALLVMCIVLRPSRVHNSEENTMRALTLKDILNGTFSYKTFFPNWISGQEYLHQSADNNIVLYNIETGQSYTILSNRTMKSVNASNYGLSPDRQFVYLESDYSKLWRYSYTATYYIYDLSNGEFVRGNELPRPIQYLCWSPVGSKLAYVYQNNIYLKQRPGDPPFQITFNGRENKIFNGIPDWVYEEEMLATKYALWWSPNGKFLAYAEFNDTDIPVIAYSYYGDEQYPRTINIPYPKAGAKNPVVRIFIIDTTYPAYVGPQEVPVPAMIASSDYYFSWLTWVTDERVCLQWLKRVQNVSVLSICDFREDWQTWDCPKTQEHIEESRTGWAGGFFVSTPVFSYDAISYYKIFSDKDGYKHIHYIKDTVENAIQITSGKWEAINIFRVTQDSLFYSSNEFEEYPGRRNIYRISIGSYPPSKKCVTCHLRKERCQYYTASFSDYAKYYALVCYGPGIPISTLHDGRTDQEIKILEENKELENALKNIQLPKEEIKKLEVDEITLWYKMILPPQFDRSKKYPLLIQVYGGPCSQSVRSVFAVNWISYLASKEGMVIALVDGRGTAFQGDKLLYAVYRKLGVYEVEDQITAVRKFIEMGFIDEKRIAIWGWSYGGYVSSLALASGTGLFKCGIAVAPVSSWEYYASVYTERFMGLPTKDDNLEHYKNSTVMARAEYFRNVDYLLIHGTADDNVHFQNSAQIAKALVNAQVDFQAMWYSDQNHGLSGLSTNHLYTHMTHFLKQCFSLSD

[6] = system: human AML cell line MV4-11; test: Cytotoxicity assay in human leukemia cell lines (Cell-Titer Glo); conditions: MV4-11, 48 h, read-out: MV4-11 viability IC50, μM
[7] = Table 2, read-out: rhFAPα (% exo inh @ 1 μM)
[8] = Table 3B, read-out: rhFAPα % exo inh @ 1 μM
[9] = exopeptidase, Table 2, read-out: rhFAPα (exo IC50)
[10] = exopeptidase, Table 3A, read-out: rhFAPα (exo IC50)

T3 sequence (P27487 whole entry): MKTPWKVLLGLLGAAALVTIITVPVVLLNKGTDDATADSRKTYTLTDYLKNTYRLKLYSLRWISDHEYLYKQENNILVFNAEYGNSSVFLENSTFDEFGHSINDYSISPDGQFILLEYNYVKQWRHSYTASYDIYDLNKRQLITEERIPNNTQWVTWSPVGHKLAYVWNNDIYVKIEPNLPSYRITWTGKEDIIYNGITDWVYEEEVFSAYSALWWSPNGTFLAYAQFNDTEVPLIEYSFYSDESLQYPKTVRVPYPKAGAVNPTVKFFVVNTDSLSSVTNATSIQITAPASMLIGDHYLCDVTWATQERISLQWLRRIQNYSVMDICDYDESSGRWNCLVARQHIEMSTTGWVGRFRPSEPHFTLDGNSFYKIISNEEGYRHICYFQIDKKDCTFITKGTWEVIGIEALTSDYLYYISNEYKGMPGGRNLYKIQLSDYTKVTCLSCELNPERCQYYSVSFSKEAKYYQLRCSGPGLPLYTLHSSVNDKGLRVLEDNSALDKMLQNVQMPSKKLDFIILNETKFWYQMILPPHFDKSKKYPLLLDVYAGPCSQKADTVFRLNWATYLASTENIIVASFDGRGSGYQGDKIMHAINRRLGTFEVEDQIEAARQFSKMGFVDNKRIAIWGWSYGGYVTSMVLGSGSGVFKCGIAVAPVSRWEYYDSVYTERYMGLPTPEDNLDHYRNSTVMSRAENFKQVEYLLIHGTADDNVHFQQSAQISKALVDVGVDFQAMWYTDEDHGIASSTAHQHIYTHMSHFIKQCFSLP
T1 sequence (Q86TI2 whole entry): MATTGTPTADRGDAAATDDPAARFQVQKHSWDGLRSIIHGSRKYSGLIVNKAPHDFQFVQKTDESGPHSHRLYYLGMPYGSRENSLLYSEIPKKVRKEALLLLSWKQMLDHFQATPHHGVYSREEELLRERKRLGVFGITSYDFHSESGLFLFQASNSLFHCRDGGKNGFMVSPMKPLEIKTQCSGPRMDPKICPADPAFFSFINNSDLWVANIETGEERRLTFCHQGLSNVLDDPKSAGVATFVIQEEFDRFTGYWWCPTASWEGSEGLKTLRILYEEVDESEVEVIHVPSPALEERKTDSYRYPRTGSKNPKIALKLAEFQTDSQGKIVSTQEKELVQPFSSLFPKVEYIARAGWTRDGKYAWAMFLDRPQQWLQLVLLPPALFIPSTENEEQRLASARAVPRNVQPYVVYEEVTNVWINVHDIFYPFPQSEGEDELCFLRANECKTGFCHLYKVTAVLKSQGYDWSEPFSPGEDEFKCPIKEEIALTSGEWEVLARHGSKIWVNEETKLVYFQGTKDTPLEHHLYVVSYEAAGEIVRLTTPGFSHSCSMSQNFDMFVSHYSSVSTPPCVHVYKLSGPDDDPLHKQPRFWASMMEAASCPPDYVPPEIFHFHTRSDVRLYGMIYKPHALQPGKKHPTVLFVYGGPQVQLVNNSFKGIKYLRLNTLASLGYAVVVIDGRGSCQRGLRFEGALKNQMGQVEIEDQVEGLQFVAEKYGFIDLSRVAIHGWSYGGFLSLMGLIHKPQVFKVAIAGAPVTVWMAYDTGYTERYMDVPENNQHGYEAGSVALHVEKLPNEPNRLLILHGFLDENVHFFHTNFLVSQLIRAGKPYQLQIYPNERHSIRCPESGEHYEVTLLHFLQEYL

| IC50 [1] [nM] | IC50 ([2]; Table 3A) [nM] | IC50 ([2]; Table 3B) [nM] | IC50 [3] [nM] | IC50 ([4]; Table 3A) [nM] | IC50 ([4]; Table 3B) [nM] | IC50 ([5]; Table 3B, read-out: rhFAP IC50) [nM] | inhibition at 1 µM [5, 7] [%] | inhibition at 1 µM [5, 8] [%] | IC50 [5, 9] [nM] | IC50 [5, 10] [nM] | Structure (SMILES) | IC50 [6] [µM] |
| --- | --- | --- | --- | --- | --- | --- | --- | --- | --- | --- | --- | --- |
| 1000 to 10000 | 1000 to 10000 | 1000 to 10000 | 1000 to 10000 | > 10000 | > 10000 | < 1000 | > 50 | > 50 | < 1000 | < 1000 | N#C[C@@H]1CC(F)(F)CN1C(=O)CNC(=O)c1ccncc1CCc1ccc(F)cc1 [Compound 11, (S)—N-(2-(2-cyano-4,4-difluoropyrrolidin-1-yl)-2-oxoethyl)-3-(4-fluorophenethyl)isonicotinamide] |  |
| 1000 to 10000 | > 10000 | > 10000 | 1000 to 10000 | 1000 to 10000 | 1000 to 10000 | < 1000 | > 50 | > 50 | < 1000 | < 1000 | N#C[C@@H]1CC(F)(F)CN1C(=O)CNC(=O)c1ccncc1/C=C/c1ccc(F)cc1 [Compound 12, (S,E)-N-(2-(2-cyano-4,4-difluoropyrrolidin-1-yl)-2-oxoethyl)-3-(4-fluorostyryl)isonicotinamide] |  |
| 1000 to 10000 | > 10000 | > 10000 | 1000 to 10000 | > 10000 | > 10000 | < 1000 | > 50 | > 50 | < 1000 | < 1000 | C/C(=C\c1cnccc1C(=O)NCC(=O)N1CC(F)(F)C[C@H]1C#N)c1ccc(F)cc1 [Compound 13, (S,E)-N-(2-(2-cyano-4,4-difluoropyrrolidin-1-yl)-2-oxoethyl)-3-(2-(4-fluorophenyl)prop-1-en-1-yl)isonicotinamide] |  |
| 1000 to 10000 |  | 1000 to 10000 | 1000 to 10000 | > 10000 | > 10000 | < 1000 | > 50 | > 50 | < 1000 | < 1000 | C=C(Cc1cnccc1C(=O)NCC(=O)N1CC(F)(F)C[C@H]1C#N)c1ccc(F)cc1 [Compound 14, (S)—N-(2-(2-cyano-4,4-difluoropyrrolidin-1-yl)-2-oxoethyl)-3-(2-(4-fluorophenyl)allyl)isonicotinamide] |  |
|  |  | > 10000 | < 1000 |  | > 10000 | < 1000 |  | > 50 |  |  | COc1ccc(/C=C/c2cnccc2C(=O)NCC(=O)N2CC(F)(F)C[C@H]2C#N)cc1 [Compound 15] | > 10 |
|  |  | > 10000 | < 1000 |  | > 10000 | < 1000 |  | > 50 |  |  | N#C[C@@H]1CC(F)(F)CN1C(=O)CNC(=O)c1ccnc2ccc(/C=C/c3ccc(Cl)cc3)cc12 [Compound 34] | < 3 |
|  |  | > 10000 | < 1000 |  | 1000 to 10000 | < 1000 |  | > 50 |  |  | N#C[C@@H]1CC(F)(F)CN1C(=O)CNC(=O)c1ccncc1/C=C/c1ccc2cc(Cl)ccc2c1 [Compound 40] | 3 to 10 |
|  |  | > 10000 | < 1000 |  | > 10000 | < 1000 |  | > 50 |  |  | COc1ccc(C#Cc2ccc3nccc(C(=O)NCC(=O)N4CC(F)(F)C[C@H]4C#N)c3c2)cc1 [Compound 41] | > 10 |
|  |  | > 10000 | < 1000 |  | > 10000 | < 1000 |  | > 50 |  |  | N#C[C@@H]1CC(F)(F)CN1C(=O)CNC(=O)c1ccnc2ccc(/C=C/c3ccc(F)cc3)cc12 [Compound 44] | < 3 |
|  |  | > 10000 | < 1000 |  | > 10000 | < 1000 |  | > 50 |  |  | Cc1ccc(/C=C/c2ccc3nccc(C(=O)NCC(=O)N4CC(F)(F)C[C@H]4C#N)c3c2)cn1 [Compound 45] | 3 to 10 |
|  |  | > 10000 | < 1000 |  | > 10000 | < 1000 |  | > 50 |  |  | N#C[C@@H]1CC(F)(F)CN1C(=O)CNC(=O)c1ccnc2ccc(/C=C/c3ccc(C(F)(F)F)nc3)cc12 [Compound 46] | < 3 |
